For assay [1], the system named is S. typhi. The assay can be described thus: Irradiation sensitivity (D10) of S. typhi in ground beef. It is filed as cell-based, Salmonella typhi (ATCC 19430).
The subject of assay [2] is E. coli. Kind of assay: Irradiation sensitivity (D10) of E. coli in ground beef. It is filed as cell-based, Escherichia coli (ATCC 25922).
The subject of assay [3] is S. typhi. Kind of assay: Irradiation sensitivity of S. typhi in chicken breast. In kind it is cell-based, Salmonella typhi (ATCC 19430).
Assay [4] relates to E. coli. The assay can be described thus: Irradiation sensitivity of E. coli in chicken breast. It is filed as cell-based, Escherichia coli (ATCC 25922). The settings on record: trans-cinnamaldehyde 0.050%, thymol 0.038%, tetrasodium pyrophosphate 0.003%, carvacrol 0.029%.
Assay [5] has as its system S. typhi. The assay can be described thus: MIC (D10 %) of active compounds in ground beef, S. typhi. It is filed as cell-based, Salmonella typhi (ATCC 19430). The settings on record: non-irradiated ground beef, 10^5 CFU/g, stored at 4° C. for 24 hours; % w/w or v/w. On the procedure: (§1) Escherichia coli (ATCC 25922) and Salmonella typhi (ATCC 19430) were obtained from the American Type Culture Collection (Rockville, Md., USA) and maintained at −80° C. in Tryptic Soy Broth (TSB; Difco Laboratory, Detroit, Mich.) containing glycerol (10%; v/v). Before each experiment, stock cultures were subcultured through two consecutive 24 h growth cycles in TSB at 35° C. to obtain working cultures containing approximately 10^9 UCF/ml for E. coli and S. typhi.
(§2) Samples were homogenised for 2 min in sterile peptone water (0.1%) using a Lab-blender 400 stomacher (Laboratory Equipment, London, UK). From this mixture, serial dilutions were prepared and appropriate ones were pour-plated in tryptic soy agar (TSA) (Difco, Laboratories, Detroit, Mich., USA) and incubated at 35° C., 24 hours for the numeration of E. coli and S. typhi.
(§3) D10 deteriiination: The kinetics of bacteria destruction by irradiation with or without the active compounds and under different packaging conditions was evaluated by linear regression. Bacterial counts (log CFU/ml) were plotted against irradiation doses or compound concentrations and the D10 values were calculated using SigmaPlot program. Statistical analysis was done using SPSS program. The Duncan test was used with a probability of 0.05.
(§4) The MIC values for the active compounds were determined on the basis of their antibacterial effectiveness in meat. Concentrations retained were those to reduce by 1 log CFU the population of E. coli or S. typhi in ground beef. Ground beef samples weighing 200 g were contaminated with working cultures of E. coli or S. typhi to obtain a final concentration of 10^5 CFU/g. The ground beef samples containing micro-organisms was mixed during 3 minutes at medium speed in a 4L-conmmercial blender (Waring Products, New Hartford, Col., USA) and different concentrations of the active compounds were incorporated, followed by another 3 minutes period mixing. Sterile petri plates (60×15 mm) were filled with ground beef samples containing micro-organisms and different concentrations of active compounds in portion of 25 g each and stored at 4° C. for 24 hours.
(§5) In addition to the above compounds, minimal concentrations of different types of commercial Herbalox® and Duralox® required to reduce by 1 log the bacterial population of E. coli in ground beef were evaluated. […] However, an estimation of the minimal concentration was calculated using the slope of the curve.

Assay [6] has as its system E. coli. Kind of assay: MIC (D10 %) of active compounds in ground beef, E. coli. It is filed as cell-based, Escherichia coli (ATCC 25922). The settings on record: non-irradiated ground beef, 10^5 CFU/g, stored at 4° C. for 24 hours; % w/w or v/w. On the procedure: as §1, §2, §3, §4, §5
Assay [7] relates to Six pathogenic and spoilage bacteria, commonly found in meat and meat products. The assay can be described thus: MIC in artificial culture media (1 log reduction). In kind it is cell-based. On the procedure:
The concentration ot each active compound added to the meat samples was based on results obtained in a previous experiment. These concentrations represent the minimum inhibitory concentrations (MIC) of the active compounds required to be present in artificial culture media in order to reduce by 1 log the number of bacteria in culture. Six pathogenic and spoilage bacteria, commonly found in meat and meat products, were tested. […] The concentration used for carnosine (1.0%) was selected from the literature (Sebranek, 1999). The concentrations of BHA (0.01%), BHT (0.01%), EDTA (100 ppm), and tetrasodium pyrophosphate (0.1%) corresponded to the concentrations recommended by the Canadian Food Inspection Agency (CFIA).
This value was detennined by testing six pathogenic and spoilage bacteria, commonly found in meat and meat products.

The mark [8] stands for this setting: ground beef, air, 4° C., lower concentration: tannic acid 0.38%, nisin 625 UI/g, EDTA 100 ppm, carvacrol […], tetrasodium pyrophosphate 0.1%, trans-cinnamaldehyde […], thymol 0.1%, thyme 0.2%, BHT 0.01%, BHA 0.01%, rosemary 0.5%, carnosine 1.0%, ascorbic acid 0.5%.
[9] abbreviates: vs control, ground beef, air, 4° C., tannic acid 0.38%, nisin 625 UI/g, EDTA 100 ppm, carvacrol […], tetrasodium pyrophosphate 0.1%, trans-cinnamaldehyde […], thymol 0.1%, thyme 0.2%, BHT 0.01%, BHA 0.01%, rosemary 0.5%, carnosine 1.0%, ascorbic acid 0.5%.
The mark [10] stands for this setting: ground beef, air, 4° C., lower concentration: thymol 0.1%, tannic acid 0.38%, rosemary 0.5%, BHT 0.01%, trans-cinnamaldehyde […], carvacrol […], thyme 0.2%, BHA 0.01%, nisin 625 UI/g, EDTA 100 ppm, tetrasodium pyrophosphate 0.1%, carnosine 1.0%, ascorbic acid 0.5%.
Setting [11] is: vs control, negative = protective effect, ground beef, air, 4° C., thymol 0.1%, tannic acid 0.38%, rosemary 0.5%, BHT 0.01%, trans-cinnamaldehyde […], carvacrol […], thyme 0.2%, BHA 0.01%, nisin 625 UI/g, EDTA 100 ppm, tetrasodium pyrophosphate 0.1%, carnosine 1.0%, ascorbic acid 0.5%.

Marks after values point to notes of the source that are not given here.

As for `COc1ccc(O)c(C(C)(C)C)c1` [BHA, butylated hydroxyanisole], the “D10(kGy)” value with S. typhi [1] (setting [8]) is given as 0.407 ± 0.0123^h kGy; in the assay on E. coli [2] (setting [10]), 0.117 ± 0.0026^ef kGy. Also, the “Increase in Sensitivity” value in the assay with S. typhi [1] (setting [9]) is on record as 22.6%; in the assay on E. coli [2] (setting [11]), 7.1%.
As for `O=P([O-])([O-])OP(=O)([O-])[O-].[Na+].[Na+].[Na+].[Na+]` [Tetrasodium pyrophosphate, tetrasodium pyrophosphate], the “D10(kGy)” value with S. typhi [3] (chicken breast, 4° C., trans-cinnamaldehyde 0.030%, tetrasodium pyrophosphate 0.003%, carvacrol 0.038%, thymol […]) was 0.520 ± 0.030^b kGy; with E. coli [4] (chicken breast, 4° C.), 0.141 ± 0.012^bc kGy. The “factor by which the effect was reduced in the chicken breast” value in the assay on S. typhi [3] (concentration of 1/30 of the MIC value in ground beef, compared with ground beef at MIC) is 1.5. Also, the “irradiation dose necessary to completely eliminate S. typhi from the chicken breast” value with S. typhi [3] (trans-cinnamaldehyde 0.030%, tetrasodium pyrophosphate 0.003%, carvacrol 0.038%, thymol […]) was determined as 2.6 kGy. For the same compound, the “Increase in Sensitivity” value in the assay on S. typhi [3] (vs control, chicken breast, trans-cinnamaldehyde 0.030%, tetrasodium pyrophosphate 0.003%, carvacrol 0.038%, thymol […]) is on record as 19.1%; in the assay on E. coli [4] (vs control, chicken breast), 2.7%. Further, the “irradiation dose necessary to completely eliminate E. coli from the chicken breast” value with E. coli [4] came out at 0.75 kGy.
For `O=C(OC[C@H]1O[C@@H](OC(=O)c2cc(O)c(O)c(OC(=O)c3cc(O)c(O)c(O)c3)c2)[C@H](OC(=O)c2cc(O)c(O)c(OC(=O)c3cc(O)c(O)c(O)c3)c2)[C@@H](OC(=O)c2cc(O)c(O)c(OC(=O)c3cc(O)c(O)c(O)c3)c2)[C@@H]1OC(=O)c1cc(O)c(O)c(OC(=O)c2cc(O)c(O)c(O)c2)c1)c1cc(O)c(O)c(OC(=O)c2cc(O)c(O)c(O)c2)c1` [Tannic acid, tannic acid], in the assay on S. typhi [5], the “D10 (%): minimal concentration of active compound required to reduce S. typhi population by 1 log in ground beef” value is listed as 21.18 ± 2.07^d %. The “D10 (%): minimal concentration of active compound required to reduce E. coli population by 1 log in ground beef” value in the assay on E. coli [6] was 11.15 ± 2.04^c %.
In the case of `O=C(O)CN(CCN(CC(=O)O)CC(=O)O)CC(=O)O` [EDTA], the “D10(kGy)” value was 0.419 ± 0.0198^hi kGy in the assay with S. typhi [1] and 0.127 ± 0.0033^gh kGy in the assay on E. coli [2]. For the same compound, the “Increase in Sensitivity” value with S. typhi [1] is 20.3%; in the assay on E. coli [2], −0.8%.
For `O=C1O[C@H]([C@@H](O)CO)C(O)=C1O` [Ascorbic acid], the “D10 (%): minimal concentration of active compound required to reduce S. typhi population by 1 log in ground beef” value with S. typhi [5] is recorded as 1.83 ± 0.06^ab %. Further, the “D10 (%): minimal concentration of active compound required to reduce E. coli population by 1 log in ground beef” value in the assay with E. coli [6] is given as 2.71 ± 0.26^b %. Moreover, the “Mean values of MIC (concentration required in artificial culture media to reduce by 1 log the number of bacteria)” value in assay [7] came to 0.5%.
On to nisin, for which the results for the “D10(kGy)” value in the assay with S. typhi [1] (setting [8]) and in the assay with E. coli [2] (setting [10]) were 0.420 ± 0.0040^hi kGy and 0.120 ± 0.0089^efg kGy, respectively. Besides, the figures for the “Increase in Sensitivity” value with S. typhi [1] (setting [9]) and in the assay with E. coli [2] (setting [11]) were 20.2% and 4.8%, respectively.

(Values after patent publication US20050118310A1, “Formulations of compounds derived from natural sources and their use with irradiation for food preservation” (priority 2001, published 2005).)
